Test results published in patent US9815815B2, “Non-selective kinase inhibitors” (GILEAD SCIENCES, INC., priority 2013, dated 2017).

Columns and labels:
rat MCT+PN model = assay: Telemetry study of PA pressure in the rat MCT+PN model; format: in vivo; conditions: for PA systolic pressure: imatinib telemetry study (study 4), 8 min 3x/day
Experimental: Efficacy study in the rat MCT+PN model. Pneumonectomy and implantation of a TRM53P telemetry monitor in the pulmonary artery (Telemetry Research, New Zealand and ADlnstruments, Colorado) was carried out in rats. Two weeks after MCT, PK10453 (Structure 2) was administered three times daily for 1 week. […] Sampling of PA pressure was performed 5 min before each morning dose in ambulatory animals in room air (estimated atmospheric pressure 716 mm Hg based on elevation of animal facility). […] Telemetry data was obtained for 10 min daily before each morning dose for this protocol.

[1] = tested on: PDGFAA stimulated phosphorylation of ERK1 and ERK2; assay: PDGFAA stimulated phosphorylation of ERK1 and ERK2 in human fetal lung fibroblasts; format: cell-based; conditions: 1 uM
[2] = tested on: PDGFBB stimulated phosphorylation of ERK1 and ERK2; assay: PDGFBB stimulated phosphorylation of ERK1 and ERK2 in human fetal lung fibroblasts; format: cell-based; conditions: for PDGFBB stimulated ppERK1 formation: 1 uM
[3] = tested on: PDGFBB stimulated AKT phosphorylation (SER473); conditions: 5 μM; PDGFRβ null and PDGFRα null cell lines; cited from earlier work
AKT phosphorylation = conditions: 0.1 μM; PASMC from control and monocrotaline treated rats; cited from earlier work
[4] = tested on: PDGFBB stimulated AKT phosphorylation; assay: In cell Western (ICW), PDGFBB stimulated AKT phosphorylation in human fetal lung fibroblasts; format: cell-based; conditions: comparison in words
Experimental: In cell Western (ICW). […] HLFs were maintained in subculture at no more than 6 passages in DMEM with 5% FBS and 4 mM Glutamax at 37° C., 5% CO2. HLFs were plated and grown to 70-80% confluence in 96 well plates then serum-starved for 48 hours. […] Antibodies were detected using IRDye 680LT goat anti-mouse IgG and IRDye 800W goat a-rabbit IgG conjugated antibodies. After washing, the signal was quantified using an Odyssey Infrared Imaging System (LI-COR). Phosphoprotein signal (800 nm) was normalized to total protein signal (700 nm) acquired from each well and experimental duplicates on same plate were averaged and reported.

Experimental for rat MCT model: At the end of the study RVSP pressure was measured; lung and heart fixed in formalin. For measurement of RVSP animals were sedated with isoflurane, intubated via a tracheostomy, and ventilated with a TOPOVENT pressure regulated ventilator (peak inspiratory pressure 18 cm H2O, PEEP 5 cm). After sternotomy, a Scisense high fidelity catheter inserted via the RV apex.
Histology and morphometric analysis. At the end of the study, the heart and lungs were removed from ventilated animals under general anesthesia. Heparinized saline was infused under pressure through the main pulmonary artery. […] The heart was removed, and the RV free wall, interventricular septum and LV free wall dissected and weighed. Buffered formalin (10%) was infused under pressure both through the pulmonary artery and the trachea. Morphometric analysis was performed on H&E stained formalin fixed tissue sectioned at 8 μm. The media area and lumen area of pulmonary arterioles were measured with Image J software by a technician blinded to treatment group. Measurements were made on 20 pulmonary arterioles per section. The ratio of the lumen area to the total media area was determined This ratio normalizes the variation in total pulmonary arteriole area. […] Briefly, pre-capillary arterioles were assigned grade 0 for no evidence of neointimal lesions, grade 1 for less than 50% luminal occlusion, and grade 2 for greater than 50% occlusion.

Cc1ccc(NC(=O)c2ccc(CN3CCN(C)CC3)cc2)cc1Nc1nccc(-c2cccnc2)n1 [Imatinib]
efficacy in the MCT+PN model, in words (rat MCT+PN model; by inhalation): not effective
PA systolic pressure (rat MCT+PN model; day 1): 41.5±3.5 mm Hg
PA systolic pressure (rat MCT+PN model; treatment day 9): 75.1±7 mm Hg
decreasing PDGF AA stimulated ppERK1 and ppERK2 formation [1]: equally effective
PDGFBB stimulated ppERK1 formation [2]: no effect
RV end systolic pressure (rat MCT model; 8 min inhalation 3x/day, two weeks): 31.8±1.8 mm Hg
efficacy in the MCT model, in words (rat MCT model; given by inhalation): equally effective
PDGFBB stimulated AKT phosphorylation (SER473) [3]: blocked
phosphorylation of AKT at Thr308 (AKT phosphorylation): no effect

COc1cc(-c2cncc(N[C@@H](C)c3cccc(NC(=O)c4cnc(C#N)nc4)c3)n2)ccc1O [PK10467]
IC50 for inhibiting PDGFBB stimulated AKT phosphorylation, compared to imatinib [4]: lower IC50 concentrations compared to imatinib

C=CS(=O)(=O)NCc1ccc(C(=O)Nc2cccc([C@H](C)Nc3cncc(-c4ccc(O)c(OC)c4)n3)c2)cc1 [PK10468]
IC50 for inhibiting PDGFBB stimulated AKT phosphorylation, compared to imatinib [4]: lower IC50 concentrations compared to imatinib

COc1cc(-c2cncc(N[C@@H](C)c3cccc(NC(=O)c4cncc(C)c4)c3)n2)ccc1C [PK10569]
IC50 for inhibiting PDGFBB stimulated AKT phosphorylation, compared to imatinib [4]: lower IC50 concentrations compared to imatinib

COc1ccc(-c2cncc(N[C@@H](C)c3cccc(NC(=O)c4cncc(C)c4)c3)n2)cc1OC [PK10571]
IC50 for inhibiting PDGFBB stimulated AKT phosphorylation, compared to imatinib [4]: lower IC50 concentrations compared to imatinib
decreasing PDGF AA stimulated ppERK1 and ppERK2 formation [1]: equally effective
PDGFBB stimulated ppERK1 formation [2]: effective
decreasing PDGF BB stimulated ppERK1 and ppERK2, compared to imatinib ([2]; 1 uM and 10 uM): more effective
ratio diphosphorylated ERK2 to total ERK2 (ppERK2/ERK2) ([2]; PDGFAA or PDGFBB stimulation (10 ng/ml), 1 uM and 10 uM): significantly decreased
ratio diphosphorylated ERK1 to total ERK1 (ppERK1/ERK1) ([2]; PDGFAA or PDGFBB stimulation, 1 μM and 10 μM): significantly decreased
